Data reported in patent US11020371B2, “Anti-norovirus composition and utilization thereof” (YAIZU SUISANKAGAKU INDUSTRY CO., LTD., priority 2015, dated 2021).

Legend:
[1] = tested on: Murine norovirus strain S7; experiment: Test Example 1: antiviral activity against murine norovirus (virus inactivation, TCID50 on RAW 264.7 cells); format: cell-based; conditions: log(TCID50 untreated) - log(TCID50 treated); 60 min reaction; theaflavin purified product and tannic acid 1.5 mg/mL in 25% ethanol-added medium; products A and B stock solution
Excerpt: [Test Method] […] Murine norovirus strain S7 was obtained and used. (2) Cell A RAW 264.7 cell being a cell line derived from a murine macrophage (ATCC (American Type Culture Collection) TIB-71) was obtained and used. […] The theaflavin-containing purified extract (hereinafter referred to as “theaflavin purified product”) obtained in Production Example 2 was used as a test sample. Moreover, as a test sample for comparison, tannic acid having nonspecific protein binding ability and also reported as to effectiveness against a norovirus, and products A and B being the existing anti-virus products were used. […] The theaflavin purified product was dissolved in dimethyl sulfoxide to be 71.7 mg/mL, and the resultant material was used in the test described below. Tannic acid was dissolved in dimethyl sulfoxide to be 169.9 mg/mL, and the resultant material was used in the test described below. […] A RAW 264.7 cell was monolayer cultured in a well of a 96-well plate, and washed twice with PBS (Phosphate Buffered Saline), and 200 μL of cell maintenance medium (2% fetal bovine serum-containing Dulbecco's Modified Eagle Medium (DMEM)) was added, and the resultant material was used in the test described below. (6) Anti-Virus Test For each test sample, a concentration was adjusted as described below, and the resultant material was applied as a test solution. […]

feline calicivirus = experiment: Test Example 3: anti-virus activity against feline calicivirus No. 2 (concentration, with or without 25% ethanol; TCID50 on CRFK cells); format: cell-based; conditions: only 25% ethanol, no addition of theaflavin purified product; 60 min reaction
Experimental: A cytopathic effect (CPE) was observed and a 50% tissue culture infectious dose (TCID50) being an indicator of a virus infectivity titer was calculated by the Behrens-Karber method. Moreover, a virus test solution untreated with the test sample was prepared in the same procedure, and the cytopathic effect was also observed on a cell to which the virus test solution was inoculated to determine a 50% tissue culture infectious dose (log (TCID50 value)). A reduction value of the virus infectivity titer by the test sample was calculated according to the formula (1) described below.
Anti-virus activity of the test sample against feline calicivirus was examined in the same manner as in Test Example 2 except that “(4) Preparation of sample for anti-virus test” and “(6) Anti-virus test” were conducted as described below.
(4) Preparation of Sample for Anti-Virus Test
A theaflavin purified product was dissolved in dimethyl sulfoxide to be 0.717 mg/mL (low concentration), 7.17 mg/mL (medium concentration) and 71.7 mg/mL (high concentration), and the resultant material was used in the test described below.
Then, 5 μL of a feline calicivirus solution and 45 μL of the test solution were mixed, and reacted for 60 minutes.
To the reaction liquid, 450 μL of serum-free Eagle's MEM medium was added to stop the reaction. […]

Compound	Reduction value of virus infectivity titer Average [1]	Average reduction value of virus infectivity titer (feline calicivirus)
O=C(OC[C@H]1O[C@@H](OC(=O)c2cc(O)c(O)c(OC(=O)c3cc(O)c(O)c(O)c3)c2)[C@H](OC(=O)c2cc(O)c(O)c(OC(=O)c3cc(O)c(O)c(O)c3)c2)[C@@H](OC(=O)c2cc(O)c(O)c(OC(=O)c3cc(O)c(O)c(O)c3)c2)[C@@H]1OC(=O)c1cc(O)c(O)c(OC(=O)c2cc(O)c(O)c(O)c2)c1)c1cc(O)c(O)c(OC(=O)c2cc(O)c(O)c(O)c2)c1 [Tannic acid]	0.5	
CCO [ethanol]		0.5
